Data taken from ChEMBL document CHEMBL4706518, “Discovery of MGS0274, an ester prodrug of a metabotropic glutamate receptor 2/3 agonist with improved oral bioavailability” (Eur J Med Chem, 2020).
The source made the active and inactive calls. The rule behind the calls is not given here.

Key:
Homo sapiens [1] = organism: Homo sapiens; experiment: Binding affinity to Leukotriene B4 receptor (unknown origin) 10 umol/L by radioligand binding assay; conditions: dose 10.0 µmol/L
[2] = molecular target: Sigma non-opioid intracellular receptor 1 (Homo sapiens) (UniProt Q99720); experiment: Binding affinity to sigma1 receptor (unknown origin) 10 umol/L by radioligand binding assay; conditions: dose 10.0 µmol/L
[3] = molecular target: D(1A) dopamine receptor (Homo sapiens) (UniProt P21728); experiment: Binding affinity to D1 receptor (unknown origin) 10 umol/L by radioligand binding assay; conditions: dose 10.0 µmol/L
[4] = molecular target: Vasopressin V1b receptor (Homo sapiens) (UniProt P47901); experiment: Binding affinity to Vasopressin V1b receptor (unknown origin) 10 umol/L by radioligand binding assay; conditions: dose 10.0 µmol/L
[5] = molecular target: Platelet-activating factor receptor (Homo sapiens) (UniProt P25105); experiment: Binding affinity to PAF receptor (unknown origin) 10 umol/L by radioligand binding assay; conditions: dose 10.0 µmol/L
[6] = molecular target: Gastrin/cholecystokinin type B receptor (Homo sapiens) (UniProt P32239); experiment: Binding affinity to CCKB (unknown origin) 10 umol/L by radioligand binding assay; conditions: dose 10.0 µmol/L
[7] = molecular target: T1, Voltage-gated L-type calcium channel (Homo sapiens, UniProt Q13936+Q13698+Q01668+O60840); experiment: Binding affinity to Voltage-dependent L-type calcium channel phenylalkylamine site (unknown origin) 10 umol/L by radioligand binding assay; format: protein assay; conditions: 10 µM, dose 10 µmol/L
[8] = molecular target: Beta-1 adrenergic receptor (Homo sapiens) (UniProt P08588); experiment: Binding affinity to beta1 adrenoreceptor (unknown origin) 10 umol/L by radioligand binding assay; conditions: dose 10.0 µmol/L
[9] = molecular target: 5-hydroxytryptamine receptor 1A (Homo sapiens) (UniProt P08908); experiment: Binding affinity to 5-HT1A receptor (unknown origin) 10 umol/L by radioligand binding assay; conditions: dose 10.0 µmol/L
[10] = molecular target: Histamine H2 receptor (Homo sapiens) (UniProt P25021); experiment: Binding affinity to H2 receptor (unknown origin) 10 umol/L by radioligand binding assay; conditions: dose 10.0 µmol/L
[11] = molecular target: Endothelin receptor type B (Homo sapiens) (UniProt P24530); experiment: Binding affinity to ETB receptor (unknown origin) 10 umol/L by radioligand binding assay; conditions: dose 10.0 µmol/L
[12] = molecular target: Muscarinic acetylcholine receptor M3 (Homo sapiens) (UniProt P20309); experiment: Binding affinity to muscarinic M3 (unknown origin) 10 umol/L by radioligand binding assay; conditions: dose 10.0 µmol/L
[13] = molecular target: B2 bradykinin receptor (Homo sapiens) (UniProt P30411); experiment: Binding affinity to B2 receptor (unknown origin) 10 umol/L by radioligand binding assay; conditions: dose 10.0 µmol/L
[14] = molecular target: Cholecystokinin receptor type A (Homo sapiens) (UniProt P32238); experiment: Binding affinity to CCKA (unknown origin) 10 umol/L by radioligand binding assay; conditions: dose 10.0 µmol/L
Homo sapiens [15] = organism: Homo sapiens; experiment: Binding affinity to NMDA receptor PCP site (unknown origin) 10 umol/L by radioligand binding assay; conditions: dose 10.0 µmol/L
[16] = molecular target: D(2) dopamine receptor (Homo sapiens) (UniProt P14416); experiment: Binding affinity to D2S receptor (unknown origin) 10 umol/L by radioligand binding assay; conditions: dose 10.0 µmol/L
Homo sapiens [17] = organism: Homo sapiens; experiment: Binding affinity to GABA transporter (unknown origin) 10 umol/L by radioligand binding assay; conditions: dose 10.0 µmol/L
Homo sapiens [18] = organism: Homo sapiens; experiment: Binding affinity to D4.2 receptor (unknown origin) 10 umol/L by radioligand binding assay; conditions: dose 10.0 µmol/L
[19] = molecular target: D(1B) dopamine receptor (Homo sapiens) (UniProt P21918); experiment: Binding affinity to D5 receptor (unknown origin) 10 umol/L by radioligand binding assay; conditions: dose 10.0 µmol/L
[20] = molecular target: Vasoactive intestinal polypeptide receptor 1 (Homo sapiens) (UniProt P32241); experiment: Binding affinity to VIP1 receptor (unknown origin) 10 umol/L by radioligand binding assay; conditions: dose 10.0 µmol/L
[21] = molecular target: T2, Metabotropic glutamate receptor 3 (Homo sapiens, UniProt Q14832); experiment: Agonist activity at human mGlu3 receptor expressed in CHO cell membranes by GTPgammaS binding assay relative to control; format: functional
[22] = molecular target: Type-1 angiotensin II receptor (Homo sapiens) (UniProt P30556); experiment: Binding affinity to AT1 receptor (unknown origin) 10 umol/L by radioligand binding assay; conditions: dose 10.0 µmol/L
Homo sapiens [23] = organism: Homo sapiens; experiment: Binding affinity to GABAA receptor agonist site (unknown origin) 10 umol/L by radioligand binding assay; conditions: dose 10.0 µmol/L
[24] = molecular target: T1, Voltage-gated L-type calcium channel; experiment: Binding affinity to Voltage-dependent L-type calcium channel dihydropyridine site (unknown origin) 10 umol/L by radioligand binding assay; format: protein assay; conditions: 10 µM, dose 10 µmol/L
Homo sapiens [25] = organism: Homo sapiens; experiment: Binding affinity to NMDA receptor polyamine site (unknown origin) 10 umol/L by radioligand binding assay; conditions: dose 10.0 µmol/L
Homo sapiens [26] = organism: Homo sapiens; experiment: Binding affinity to nACh receptor (unknown origin) 10 umol/L by radioligand binding assay; conditions: dose 10.0 µmol/L
Homo sapiens [27] = organism: Homo sapiens; experiment: Binding affinity to GABAA chloride channel central (unknown origin) 10 umol/L by radioligand binding assay; conditions: dose 10.0 µmol/L
Homo sapiens [28] = organism: Homo sapiens; experiment: Binding affinity to Kainate receptor (unknown origin) 10 umol/L by radioligand binding assay; conditions: dose 10.0 µmol/L
Homo sapiens [29] = organism: Homo sapiens; experiment: Binding affinity to Vasopressin V1 receptor (unknown origin) 10 umol/L by radioligand binding assay; conditions: dose 10.0 µmol/L
Homo sapiens [30] = organism: Homo sapiens; experiment: Binding affinity to AMPA receptor (unknown origin) 10 umol/L by radioligand binding assay; conditions: dose 10.0 µmol/L
[31] = molecular target: Beta-2 adrenergic receptor (Homo sapiens) (UniProt P07550); experiment: Binding affinity to beta2 adrenoreceptor (unknown origin) 10 umol/L by radioligand binding assay; conditions: dose 10.0 µmol/L
[32] = molecular target: Histamine H3 receptor (Homo sapiens) (UniProt Q9Y5N1); experiment: Binding affinity to H3 receptor (unknown origin) 10 umol/L by radioligand binding assay; conditions: dose 10.0 µmol/L
[33] = molecular target: T2, Metabotropic glutamate receptor 3; experiment: Agonist activity at human mGlu3 receptor expressed in CHO cell membranes by GTPgammaS binding assay; format: functional, Cell membrane
Target sequence in this assay (Q14832 whole entry): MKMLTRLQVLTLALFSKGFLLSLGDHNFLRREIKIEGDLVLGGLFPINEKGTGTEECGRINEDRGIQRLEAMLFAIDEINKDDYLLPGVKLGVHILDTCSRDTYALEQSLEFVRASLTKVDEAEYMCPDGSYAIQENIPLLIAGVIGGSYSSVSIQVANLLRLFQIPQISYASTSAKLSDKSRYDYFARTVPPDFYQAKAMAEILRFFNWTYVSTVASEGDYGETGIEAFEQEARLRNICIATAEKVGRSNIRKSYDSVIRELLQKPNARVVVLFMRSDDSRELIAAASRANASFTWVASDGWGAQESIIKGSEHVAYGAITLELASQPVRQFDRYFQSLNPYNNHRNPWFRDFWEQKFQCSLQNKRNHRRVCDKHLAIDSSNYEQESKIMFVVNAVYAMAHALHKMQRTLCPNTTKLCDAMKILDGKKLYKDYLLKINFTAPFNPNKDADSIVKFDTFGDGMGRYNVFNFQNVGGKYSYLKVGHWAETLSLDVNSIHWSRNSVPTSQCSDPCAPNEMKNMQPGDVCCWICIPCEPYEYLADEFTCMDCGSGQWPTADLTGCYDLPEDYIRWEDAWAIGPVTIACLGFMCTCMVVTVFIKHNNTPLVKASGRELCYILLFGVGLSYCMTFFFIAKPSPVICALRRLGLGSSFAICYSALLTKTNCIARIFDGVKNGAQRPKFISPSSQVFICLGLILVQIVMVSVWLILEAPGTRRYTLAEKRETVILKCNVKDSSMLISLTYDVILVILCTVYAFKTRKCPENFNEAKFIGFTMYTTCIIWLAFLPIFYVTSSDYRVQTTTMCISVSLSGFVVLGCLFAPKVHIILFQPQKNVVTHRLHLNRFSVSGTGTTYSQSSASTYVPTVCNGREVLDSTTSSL

Homo sapiens [34] = organism: Homo sapiens; experiment: Binding affinity to adenosine transporter (unknown origin) at 10 umol/L by radioligand binding assay; conditions: dose 10.0 µmol/L
[35] = molecular target: Adenosine receptor A3 (Homo sapiens) (UniProt P0DMS8); experiment: Binding affinity to A3 receptor (unknown origin) 10 umol/L by radioligand binding assay; conditions: dose 10.0 µmol/L
[36] = molecular target: Alpha-1A adrenergic receptor (Homo sapiens) (UniProt P35348); experiment: Binding affinity to alpha1A adrenoreceptor (unknown origin) 10 umol/L by radioligand binding assay; conditions: dose 10.0 µmol/L
[37] = molecular target: Alpha-2A adrenergic receptor (Homo sapiens) (UniProt P08913); experiment: Binding affinity to alpha2A adrenoreceptor (unknown origin) 10 umol/L by radioligand binding assay; conditions: dose 10.0 µmol/L
Homo sapiens [38] = organism: Homo sapiens; experiment: Binding affinity to sodium channel site 2 (unknown origin) 10 umol/L by radioligand binding assay; conditions: dose 10.0 µmol/L
Homo sapiens [39] = organism: Homo sapiens; experiment: Binding affinity to NMDA receptor glycine site (unknown origin) 10 umol/L by radioligand binding assay; conditions: dose 10.0 µmol/L
[40] = molecular target: Sodium-dependent noradrenaline transporter (Homo sapiens) (UniProt P23975); experiment: Binding affinity to norepinephrine transporter (unknown origin) 10 umol/L by radioligand binding assay; conditions: dose 10.0 µmol/L
Homo sapiens [41] = organism: Homo sapiens; experiment: Binding affinity to Monoamine transporter (unknown origin) 10 umol/L by radioligand binding assay; conditions: dose 10.0 µmol/L
[42] = molecular target: Cannabinoid receptor 1 (Homo sapiens) (UniProt P21554); experiment: Binding affinity to CB1 (unknown origin) 10 umol/L by radioligand binding assay; conditions: dose 10.0 µmol/L
[43] = molecular target: T1, Voltage-gated L-type calcium channel; experiment: Binding affinity to Voltage-dependent L-type calcium channel benzothiazepine site (unknown origin) 10 umol/L by radioligand binding assay; format: protein assay; conditions: 10 µM, dose 10 µmol/L
[44] = molecular target: Neurotensin receptor type 1 (Homo sapiens) (UniProt P30989); experiment: Binding affinity to NT1 receptor (unknown origin) 10 umol/L by radioligand binding assay; conditions: dose 10.0 µmol/L
[45] = molecular target: Type-2 angiotensin II receptor (Homo sapiens) (UniProt P50052); experiment: Binding affinity to AT2 receptor (unknown origin) 10 umol/L by radioligand binding assay; conditions: dose 10.0 µmol/L

Sequence of Alpha-2A adrenergic receptor (Homo sapiens) (P08913 whole entry): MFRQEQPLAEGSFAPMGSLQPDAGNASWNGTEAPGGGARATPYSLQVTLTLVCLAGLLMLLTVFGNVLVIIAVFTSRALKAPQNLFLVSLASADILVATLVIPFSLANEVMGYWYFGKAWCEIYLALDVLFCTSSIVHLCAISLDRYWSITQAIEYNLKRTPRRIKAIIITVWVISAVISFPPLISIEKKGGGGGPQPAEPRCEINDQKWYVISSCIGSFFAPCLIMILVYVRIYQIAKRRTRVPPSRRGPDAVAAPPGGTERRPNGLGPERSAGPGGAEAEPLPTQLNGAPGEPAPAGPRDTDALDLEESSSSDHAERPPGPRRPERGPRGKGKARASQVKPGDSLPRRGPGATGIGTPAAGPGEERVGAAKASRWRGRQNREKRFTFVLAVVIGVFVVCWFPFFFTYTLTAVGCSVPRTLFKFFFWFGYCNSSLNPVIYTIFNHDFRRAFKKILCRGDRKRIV
Sequence of Beta-1 adrenergic receptor (Homo sapiens) (P08588 whole entry, looked up): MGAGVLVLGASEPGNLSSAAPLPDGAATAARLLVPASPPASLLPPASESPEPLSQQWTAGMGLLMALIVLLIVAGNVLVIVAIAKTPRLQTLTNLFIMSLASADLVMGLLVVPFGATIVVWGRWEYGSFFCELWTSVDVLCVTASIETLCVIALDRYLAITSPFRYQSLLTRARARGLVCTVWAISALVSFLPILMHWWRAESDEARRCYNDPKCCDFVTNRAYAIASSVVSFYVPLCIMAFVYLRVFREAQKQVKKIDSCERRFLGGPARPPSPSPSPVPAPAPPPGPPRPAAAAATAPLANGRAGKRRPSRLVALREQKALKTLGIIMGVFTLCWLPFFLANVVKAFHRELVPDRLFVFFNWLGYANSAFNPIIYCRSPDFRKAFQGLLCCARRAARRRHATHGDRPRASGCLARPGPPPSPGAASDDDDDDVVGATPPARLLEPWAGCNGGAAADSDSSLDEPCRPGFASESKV
Sequence of Histamine H3 receptor (Homo sapiens) (Q9Y5N1 whole entry): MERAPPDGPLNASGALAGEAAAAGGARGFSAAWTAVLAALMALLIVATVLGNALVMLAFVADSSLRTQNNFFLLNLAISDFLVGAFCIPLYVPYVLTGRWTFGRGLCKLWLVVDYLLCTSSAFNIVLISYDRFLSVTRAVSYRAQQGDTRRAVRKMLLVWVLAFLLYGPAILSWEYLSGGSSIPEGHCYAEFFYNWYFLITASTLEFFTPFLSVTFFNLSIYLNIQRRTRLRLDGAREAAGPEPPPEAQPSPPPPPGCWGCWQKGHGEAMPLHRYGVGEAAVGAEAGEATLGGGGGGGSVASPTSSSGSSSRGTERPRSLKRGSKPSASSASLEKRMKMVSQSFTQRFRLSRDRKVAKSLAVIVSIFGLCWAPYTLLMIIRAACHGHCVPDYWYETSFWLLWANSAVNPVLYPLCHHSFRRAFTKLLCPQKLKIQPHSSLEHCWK
Sequence of Muscarinic acetylcholine receptor M3 (Homo sapiens) (P20309 whole entry, looked up): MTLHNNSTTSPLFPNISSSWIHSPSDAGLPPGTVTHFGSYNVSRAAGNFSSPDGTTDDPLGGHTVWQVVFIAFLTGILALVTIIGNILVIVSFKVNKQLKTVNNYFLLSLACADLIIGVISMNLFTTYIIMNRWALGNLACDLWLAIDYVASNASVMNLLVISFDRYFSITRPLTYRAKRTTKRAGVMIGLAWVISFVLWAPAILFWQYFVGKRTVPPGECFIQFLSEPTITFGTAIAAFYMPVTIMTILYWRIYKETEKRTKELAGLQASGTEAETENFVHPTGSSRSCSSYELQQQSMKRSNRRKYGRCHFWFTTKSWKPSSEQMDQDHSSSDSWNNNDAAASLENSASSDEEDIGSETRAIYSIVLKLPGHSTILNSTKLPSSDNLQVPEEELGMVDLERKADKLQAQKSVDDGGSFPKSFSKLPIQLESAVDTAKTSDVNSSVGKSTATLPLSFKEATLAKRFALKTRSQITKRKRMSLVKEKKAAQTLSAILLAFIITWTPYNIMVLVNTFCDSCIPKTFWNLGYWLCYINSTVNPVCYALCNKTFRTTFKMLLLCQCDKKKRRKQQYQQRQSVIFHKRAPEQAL
Sequence of Platelet-activating factor receptor (Homo sapiens) (P25105 whole entry): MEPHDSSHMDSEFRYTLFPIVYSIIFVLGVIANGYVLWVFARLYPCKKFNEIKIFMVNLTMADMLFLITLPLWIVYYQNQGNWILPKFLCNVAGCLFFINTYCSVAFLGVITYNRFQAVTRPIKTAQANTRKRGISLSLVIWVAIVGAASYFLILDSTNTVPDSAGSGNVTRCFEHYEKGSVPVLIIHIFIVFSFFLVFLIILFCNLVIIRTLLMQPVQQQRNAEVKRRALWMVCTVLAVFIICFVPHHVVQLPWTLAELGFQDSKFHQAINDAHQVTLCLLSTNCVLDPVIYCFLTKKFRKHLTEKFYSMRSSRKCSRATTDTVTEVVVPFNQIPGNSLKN
Sequence of D(1A) dopamine receptor (Homo sapiens) (P21728 whole entry): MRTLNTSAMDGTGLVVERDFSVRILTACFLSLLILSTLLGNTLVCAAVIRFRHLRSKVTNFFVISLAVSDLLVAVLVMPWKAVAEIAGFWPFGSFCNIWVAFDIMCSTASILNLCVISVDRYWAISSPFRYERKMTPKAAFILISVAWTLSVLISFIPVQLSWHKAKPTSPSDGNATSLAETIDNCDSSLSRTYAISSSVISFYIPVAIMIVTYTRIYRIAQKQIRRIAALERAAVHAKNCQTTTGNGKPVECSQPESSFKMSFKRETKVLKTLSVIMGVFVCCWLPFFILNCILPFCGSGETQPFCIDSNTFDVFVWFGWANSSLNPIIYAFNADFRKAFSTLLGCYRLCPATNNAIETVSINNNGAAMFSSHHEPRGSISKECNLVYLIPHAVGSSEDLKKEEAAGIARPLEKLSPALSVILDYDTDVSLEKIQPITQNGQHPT
Sequence of Sigma non-opioid intracellular receptor 1 (Homo sapiens) (Q99720 whole entry): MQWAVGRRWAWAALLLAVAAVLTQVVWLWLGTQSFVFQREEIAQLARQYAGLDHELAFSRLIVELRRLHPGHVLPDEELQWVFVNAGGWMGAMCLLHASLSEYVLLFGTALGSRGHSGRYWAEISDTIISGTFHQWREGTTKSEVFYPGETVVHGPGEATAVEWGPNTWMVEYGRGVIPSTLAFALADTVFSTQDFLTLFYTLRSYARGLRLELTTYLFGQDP
Sequence of D(1B) dopamine receptor (Homo sapiens) (P21918 whole entry): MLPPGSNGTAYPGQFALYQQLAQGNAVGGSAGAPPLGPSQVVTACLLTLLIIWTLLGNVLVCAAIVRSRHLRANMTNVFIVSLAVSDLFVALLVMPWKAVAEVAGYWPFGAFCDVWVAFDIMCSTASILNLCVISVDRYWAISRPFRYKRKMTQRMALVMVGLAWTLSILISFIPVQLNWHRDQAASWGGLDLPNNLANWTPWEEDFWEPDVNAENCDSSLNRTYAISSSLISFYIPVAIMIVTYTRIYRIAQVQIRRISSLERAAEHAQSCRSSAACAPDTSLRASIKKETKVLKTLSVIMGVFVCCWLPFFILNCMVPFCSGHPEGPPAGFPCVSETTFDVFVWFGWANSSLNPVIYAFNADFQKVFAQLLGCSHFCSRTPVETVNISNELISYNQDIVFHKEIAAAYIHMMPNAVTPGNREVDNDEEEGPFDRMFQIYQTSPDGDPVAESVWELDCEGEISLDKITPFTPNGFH
Sequence of Sodium-dependent noradrenaline transporter (Homo sapiens) (P23975 whole entry): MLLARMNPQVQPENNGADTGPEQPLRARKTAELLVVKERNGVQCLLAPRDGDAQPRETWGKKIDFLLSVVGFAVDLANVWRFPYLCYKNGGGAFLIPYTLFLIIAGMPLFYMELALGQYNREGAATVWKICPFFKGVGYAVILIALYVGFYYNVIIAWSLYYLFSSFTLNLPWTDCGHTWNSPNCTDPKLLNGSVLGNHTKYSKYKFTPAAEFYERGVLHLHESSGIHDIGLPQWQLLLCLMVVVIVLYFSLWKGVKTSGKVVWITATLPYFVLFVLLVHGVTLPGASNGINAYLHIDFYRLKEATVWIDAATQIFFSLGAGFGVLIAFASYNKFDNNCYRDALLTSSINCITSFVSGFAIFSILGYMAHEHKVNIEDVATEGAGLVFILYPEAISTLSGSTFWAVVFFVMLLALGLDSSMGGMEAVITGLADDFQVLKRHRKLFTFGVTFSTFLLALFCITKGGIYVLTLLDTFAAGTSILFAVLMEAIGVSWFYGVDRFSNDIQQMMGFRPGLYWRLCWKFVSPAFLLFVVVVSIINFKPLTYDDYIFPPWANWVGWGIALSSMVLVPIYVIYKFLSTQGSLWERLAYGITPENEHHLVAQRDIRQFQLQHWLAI

## N[C@]1(C(=O)O)[C@H]2[C@@H](C[C@@H]1F)[C@@H]2C(=O)O
Homo sapiens [1]
  Activity: inactive
[2]
  Activity: inactive
[3]
  Activity: inactive
[4]
  Activity: inactive
[5]
  Activity: inactive
[6]
  Activity: inactive
[7]
  Activity: Not Active
[8]
  Activity: inactive
[9]
  Activity: inactive
[10]
  Activity: inactive
[11]
  Activity: inactive
[12]
  Activity: inactive
[13]
  Activity: inactive
[14]
  Activity: inactive
Homo sapiens [15]
  Activity: inactive
[16]
  Activity: inactive
Homo sapiens [17]
  Activity: inactive
Homo sapiens [18]
  Activity: inactive
[19]
  Activity: inactive
[20]
  Activity: inactive
[21]; Cell membrane, filed as agonist
  Emax: 102%
[22]
  Activity: inactive
Homo sapiens [23]
  Activity: inactive
[24]
  Activity: Not Active
Homo sapiens [25]
  Activity: inactive
Homo sapiens [26]
  Activity: inactive
Homo sapiens [27]
  Activity: inactive
Homo sapiens [28]
  Activity: inactive
Homo sapiens [29]
  Activity: inactive
Homo sapiens [30]
  Activity: inactive
[31]
  Activity: inactive
[32]
  Activity: inactive
[33]
  EC50: 0.0759 µM
Homo sapiens [34]
  Activity: inactive
[35]
  Activity: inactive
[36]
  Activity: inactive
[37]
  Activity: inactive
Homo sapiens [38]
  Activity: inactive
Homo sapiens [39]
  Activity: inactive
[40]
  Activity: inactive
Homo sapiens [41]
  Activity: inactive
[42]
  Activity: inactive
[43]
  Activity: Not Active
[44]
  Activity: inactive
[45]
  Activity: inactive

## CC(C)[C@@H]1CC[C@@H](C)C[C@H]1OC(=O)O[C@@H](C)OC(=O)[C@H]1[C@@H]2C[C@H](F)[C@@](N)(C(=O)O)[C@@H]21
Homo sapiens [1]
  Activity: inactive
[2]
  Activity: inactive
[3]
  Activity: inactive
[4]
  Activity: inactive
[5]
  Activity: inactive
[6]
  Activity: inactive
[7]
  Activity: Not Active
[8]
  Activity: inactive
[9]
  Activity: inactive
[10]
  Activity: inactive
[11]
  Activity: inactive
[12]
  Activity: inactive
[13]
  Activity: inactive
[14]
  Activity: inactive
Homo sapiens [15]
  Activity: inactive
[16]
  Activity: inactive
Homo sapiens [17]
  Activity: inactive
Homo sapiens [18]
  Activity: inactive
[19]
  Activity: inactive
[20]
  Activity: inactive
[21]
  EC50: > 30 µM
[22]
  Activity: inactive
Homo sapiens [23]
  Activity: inactive
[24]
  Activity: Not Active
Homo sapiens [25]
  Activity: inactive
Homo sapiens [26]
  Activity: inactive
Homo sapiens [27]
  Activity: inactive
Homo sapiens [28]
  Activity: inactive
Homo sapiens [29]
  Activity: inactive
Homo sapiens [30]
  Activity: inactive
[31]
  Activity: inactive
[32]
  Activity: inactive
[33]
  EC50: > 30 µM
Homo sapiens [34]
  Activity: inactive
[35]
  Activity: inactive
[36]
  Activity: inactive
[37]
  Activity: inactive
Homo sapiens [38]
  Activity: inactive
Homo sapiens [39]
  Activity: inactive
[40]
  Activity: inactive
Homo sapiens [41]
  Activity: inactive
[42]
  Activity: inactive
[43]
  Activity: Not Active
[44]
  Activity: inactive
[45]
  Activity: inactive
